Laboratory results: patent publication US6562865B1, “Composition comprising a tramadol material and an anticonvulsant drug” (Ortho-McNeil Pharmaceutical, Inc., priority 1999, dated 2003)
Where two headings read alike, the source gives them in different places.

Key:
[1] = tested on: mechanical (tactile) allodynia in Chung Model rats; experiment: Antiallodynic effect in the Chung Model (L5 spinal nerve ligation, paw withdrawal threshold with von Frey filaments); details: for ED50: Rattus norvegicus, po, read-out: ED50 (SEM) of drug alone
Experimental: The antiallodynic effect of the composition of the present invention in the Chung Model is expressed in % MPE (Maximum Possible Effect).
Pathogen-free, male albino Sprague-Dawley rats, 200 g, were purchased from Harlan Industries (Indianapolis, Ind.) and maintained on a 12-h light/dark cycle (lights on at 06:00 h) in a climate-controlled room with food and water available ad libitum.
The rats were anesthetized with isoflurane inhalant anesthesia. The left lumbar spinal nerve at the level of L5 was tightly ligated (4-0 silk suture) distal to the dorsal root ganglion and prior to entrance into the sciatic nerve, as described by Kim and Chung. The incisions were closed and the rats were allowed to recover under conditions described above. This procedure results in mechanical allodynia in the left hind paw. The sham operation, when performed, consisted of a similar surgical procedure lacking only the final ligation of the spinal nerve. Mechanical (tactile) allodynia was assessed by recording the pressure at which the affected paw (ipsilateral to the site of nerve injury) was withdrawn from graded stimuli (von Frey filaments ranging from 4.0 to 148.1 mN) applied perpendicularly to the plantar surface of the paw (between the footpads) through wire-mesh observation cages. A paw withdrawal threshold (PWT) was determined by sequentially increasing and decreasing the stimulus strength and analyzing withdrawal data using a Dixon non-parametric test (Chaplan, et al). Normal rats, sham operated rats, and the contralateral paw of L5 ligated rats withstand at least 148.1 mN (equivalent to 15 g) of pressure without responding.
The dosing materials were all prepared in the vehicle, a suspension of 0.5% hydroxypropyl methylcellulose in distilled water; drug weights were calculated as the free base. The tramadol solution was prepared first, and the appropriate volume of this solution was added to a neat amount of the anticonvulsant to give the final dosing suspension. Drug weights were calculated as the free base, and the ratios used were based on the respective ED50 values of tramadol and the anticonvulsant. The necessary doses for each ratio were prepared separately and dosed orally in a volume of 10 mL/kg per rat.
The Chung Model rats were all dosed orally with the composition comprising a combination of tramadol hydrochloride (calculated as the base) and the anticonvulsant drug (calculated as the base) or the composition of each agent separately dissolved in distilled water or dissolved in a suspension of 0.5% hydroxypropyl methylcellulose in distilled water. The dosing volume was 10 mL/kg.
The rats were intubated with various doses of tramadol hydrochloride alone, anticonvulsant drug alone, combined doses of tramadol hydrochloride and anticonvulsant or vehicle such as distilled water or a suspension of 0.5% hydroxypropyl methylcellulose in distilled water.
Within a certain time after the oral administration of tramadol hydrochloride alone, the anticonvulsant drug alone, the composition comprising a combination of tramadol hydrochloride and the anticonvulsant drug or vehicle alone, the PWT test was commenced. Each rat was used in the evaluation of only a single dose-ratio.
The analysis of possible synergistic effect for the compositions at each fixed ratio was determined (R. J. Tallarida, et al., Life Sci., 1989, 45, 947). This procedure involves the determination of the total amount in the mixture that is required to produce a specified synergistic antiallodynic effect at the 50% dose level (that is, the ED50mix or Zmix) and the corresponding total amount that would be expected under simple additivity (ED50add or Zadd). Where it is established that Zmix<Zadd for a specific fixed-ratio, then that composition has a synergistic antiallodynic effect. Both the quantities ED50mix and ED50add are random variables.

[2] = tested on: hot plate latency response in mice; experiment: Antinociceptive effect in the 48° C. Mouse Hot Plate Model; assay type: in vivo; details: for % Maximal Possible Effect: 1.5 hours
Experimental: Mice were placed on a heated surface (48° C.) and the time interval (seconds) between placement and a shaking, licking, or tucking of the hind paw was recorded as the predrug latency response. This same procedure was repeated at various times after the test drug was administered p.o., 10 mL/kg.
The 48° C. Mouse Hot Plate was used to calculate the % maximal possible effect (% MPE) according to the formula: [formula]
The analysis of possible synergistic effect at each fixed ratio was determined as described by Tallarida, et al., above.

[3] = drug alone 30 mg/kg p.o., 1 hour
[4] = drug alone 50 mg/kg p.o., 2 hours
[5] = drug alone 60 mg/kg p.o., 1 hour
[6] = drug alone 75 mg/kg p.o., 2 hours
[7] = drug alone 90 mg/kg p.o., 1 hour
[8] = drug alone 100 mg/kg p.o., 2 hours
[9] = drug alone 125 mg/kg p.o., 2 hours
[10] = drug alone 150 mg/kg p.o., 2 hours
[11] = drug alone 250 mg/kg p.o., 2 hours
[12] = drug alone 500 mg/kg p.o., 2 hours
[13] = drug alone 25 mg/kg p.o., 2 hours

Row | SMILES | ED50 ([1]; 1 h) [mg/kg] | ED50 ([1]; 2 h) [mg/kg] | % MPE [1, 3] [% MPE] | % MPE [1, 4] [% MPE] | % MPE [1, 5] [% MPE] | % MPE [1, 6] [% MPE] | % MPE [1, 7] [% MPE] | % MPE [1, 8] [% MPE] | % MPE [1, 9] [% MPE] | % MPE [1, 10] [% MPE] | % Maximal Possible Effect ([2]; drug alone 10 mg/kg p.o.) [%] | % Maximal Possible Effect ([2]; drug alone 30 mg/kg p.o.) [%] | % MPE [1, 11] [% MPE] | % MPE [1, 12] [% MPE] | % MPE [1, 13] [% MPE] | also measured
1 | COc1cccc(C2(O)CCCCC2CN(C)C)c1 (single isomer, unassigned) [Tramadol, (1R,2R or 1S,2S)-2-[(dimethylamino)methyl]-1-(3-methoxyphenyl)cyclohexanol] | 48.6 | 94.5 | 25.70 | 3.77 | 40.96 | 20.62 | 73.61 | 45.38 | 74.29 | 100 | 5.83 | 37.74 |  |  |  | % MPE ([1]; drug alone 10 mg/kg p.o., 1 hour): 16.79 % MPE; % MPE ([1]; drug alone 120 mg/kg p.o., 1 hour): 84.05 % MPE; ED50 ([2]; Mus musculus, po, 1.5 h, p.o., 48° C. hot plate, read-out: ED50 (SEM) at 1.5 Hours): 35.1 mg/kg; % Maximal Possible Effect ([2]; drug alone 100 mg/kg p.o.): 86.62%; % Maximal Possible Effect ([2]; drug alone 300 mg/kg p.o.): 100%; antinociceptive effect in dose-response study ([2]; p.o., 48° C. hot plate): dose-dependent antinociceptive effect; antinociceptive effect at the higher doses ([2]; p.o., 48° C. hot plate, higher doses): Full antinociceptive effect
2 | NCC1(CC(=O)O)CCCCC1 [Gabapentin] |  | 440 |  |  |  |  |  | 7.31 |  |  |  |  | 15.62 | 54.26 |  | % MPE ([1]; drug alone 750 mg/kg p.o., 2 hours): 67.95 % MPE; % MPE ([1]; drug alone 1000 mg/kg p.o., 2 hours): 85.34 % MPE
3 | Nc1nnc(-c2cccc(Cl)c2Cl)c(N)n1 [Lamotrigine] |  | 75.5 |  | 21.95 |  | 48.69 |  |  | 75.09 | 83.51 |  |  |  |  | 5.48 | 
4 | NC(=O)OC[C@@H](O)c1ccccc1Cl [RWJ-333369, 1,2-ethanediol, 1-(2-chlorophenyl)-, 2-carbamate, (S)-] | 77.4 |  | 5.57 |  | 30.43 |  | 57.01 |  |  |  |  |  |  |  |  | % MPE ([1]; drug alone 45 mg/kg p.o., 1 hour): 23.01 % MPE; % MPE ([1]; drug alone 75 mg/kg p.o., 1 hour): 54.54 % MPE
5 | CC1(C)O[C@@H]2[C@@H](CO[C@@]3(COS(N)(=O)=O)OC(C)(C)O[C@@H]23)O1 [Topiramate, 2,3,4,5-bis-O-(1-methylethylidene)-β-D-fructopyranose sulfamates] |  | 98 |  | 26.58 |  |  |  | 56.42 |  |  | 0.82 | 9.71 | 76.51 | 94.38 | 11.54 | 
